Data reported in patent publication US7439271B2, “Reduction of hair growth” (The Gillette Company, priority 2001, dated 2008).

What was measured:
flank organ hair growth = assay: Golden Syrian hamster assay (flank organ hair mass); type: in vivo; conditions: topical, thirteen applications; for % Inhibition (hair mass reduction): vs vehicle treated side
Source text: Male intact Golden Syrian hamsters are considered acceptable models for human beard hair growth in that they display oval shaped flank organs, one on each side, each about 8 mm. in major diameter. These organs produce fine light colored hair typical of the animal pelage found on the body. In response to androgens the flank organs produce dark coarse hair similar to male human beard hair. To evaluate the effectiveness of a composition in reducing hair growth, the flank organs of each of a group of hamsters are depilated by applying a thioglycolate based chemical depilatory (Surgex) and/or shaved. To one organ of each animal 10 μl. of vehicle alone once a day is applied, while to the other organ of each animal an equal amount of vehicle containing the compound under evaluation is applied. After thirteen applications (one application per day for five days a week), the flank organs are shaved and the amount of recovered hair (hair mass) from each is weighed. Percent-reduction of hair growth is calculated by subtracting the hair mass (mg) value of the test compound treated side from the hair mass value of the vehicle treated side; the delta value obtained is then divided by the hair mass value of the vehicle treated side, and the resultant number is multiplied by 100.
The above-described assay will be referred to herein as the “Golden Syrian hamster” assay. Preferred compositions provide a reduction in hair growth of at least about 15% and more preferably at least about 20%, when tested in the Golden Syrian hamster assay. Compositions described in Example 1 (above) were tested in the Golden Syrian hamster assay. […] AZT, a well-characterized inhibitor of reverse transcriptase, inhibits telomerase by blocking the […] of the enzyme.

human hair follicles = assay: Human hair follicle growth assay; type: cell-based; conditions: day 0 to day 6
Source text: Tissue source—Human skin was obtained from a plastic surgeon as a by-product of face-lift procedures. Immediately after removal, the skin was placed in Williams E medium containing antibiotics and refrigerated. The Williams E medium is a commercially obtained medium which has been formulated with essential nutrients for maintaining viability of tissues or cells such as of hair follicle in an in-vitro environment.
Hair Follicle Isolation and Culture—Human hair follicles in growth phase (anagen) were isolated from face-lift tissue under a dissecting scope using a scalpel and watchmakers forceps. The skin was sliced into thin strips exposing 2-3 rows of follicles that could readily be dissected. Follicles were placed into 0.5 ml Williams E medium supplemented with 2 mM L-glutamine, 10 μg/ml insulin, 100 ng/ml hydrocortisone, 100 units penicillin, 0.1 mg/ml streptomycin and 0.25 μg/ml amphotericin B. The follicles were incubated in 24 well plates (1 follicle/well) at 37° C. in an atmosphere of 5% CO2 and 95% air. Hair follicles were videorecorded in the 24-well plates under the dissecting scope under a power of 20×. Typically, hair follicle lengths were measured on day 0 (day follicles were placed in culture) and again on day 7. When testing compounds, the compound was included in the culture medium from time 0 and remained in the medium throughout the course of the experiment.
In this system follicle cells differentiate to form hair fiber and increase in length at a rate not dissimilar from that of humans, in vivo. Typically, hair fiber from these in-vitro follicles grow about 0.3 mm/day. […] This model of human hair growth is capable of identifying inhibitors of hair growth. The selective telomerase inhibitors -I, -IV and -V were obtained from Calbiochem, La Jolla, Calif. The data in Tables II-VI below show dose-dependent inhibition of human hair follicle growth by various compounds.

SMILES	% Inhibition of human hair growth (human hair follicles; 10 μM)	Length Increase (mm) (human hair follicles; 10 μM)	% Inhibition of human hair growth (human hair follicles; 100 μM)	Length Increase (mm) (human hair follicles; 100 μM)	also measured
C[n+]1ccc(-c2c3nc(c(-c4cc[n+](C)cc4)c4ccc([nH]4)c(-c4cc[n+](C)cc4)c4nc(c(-c5cc[n+](C)cc5)c5ccc2[nH]5)C=C4)C=C3)cc1 [TMPyP4, meso-5,10,15,20-tetrakis-(N-methyl-4-pyridy)porphine]					Left (mg): hair mass for vehicle with test compound (flank organ hair growth; dose 1%): 1.73 ± .23 mg; % Inhibition (hair mass reduction) (flank organ hair growth; dose 1%): 28 ± 8%; % Inhibition of human hair growth (human hair follicles; 73 μM): 52 ± 9%; Length Increase (mm) (human hair follicles; 73 μM): .468 ± .09 mm
O=C1c2ccc3c4ccc5c6c(ccc(c7ccc(c2c37)C(=O)N1CCN1CCCCC1)c64)C(=O)N(CCN1CCCCC1)C5=O [Telomerase Inhibitor IV, N,N′-bis[2-(1-piperidino)ethyl]-3,4,9,10-perylenetetracarboxylic diimide]	10 ± 10%	1.39 ± .16 mm	48 ± 8%	0.80 ± .12 mm	
C[N+]1(CCC(=O)Nc2ccc3c(c2)C(=O)c2ccc(NC(=O)CC[N+]4(C)CCCCC4CO)cc2C3=O)CCCCC1CO.[I-].[I-] (centres unmarked) [Telomerase Inhibitor I]	34 ± 6%	1.18 ± .10 mm	84 ± 5%	.286 ± .09 mm	
O=C(CCN1CCCCC1)Nc1ccc2c(c1)C(=O)c1ccc(NC(=O)CCN3CCCCC3)cc1C2=O [Telomerase Inhibitor V, 2,6-bis[3-(N-piperidino)propionamido]anthracene-9,10-dione]	14 ± 8%	1.32 ± .13 mm	68 ± 19%	0.25 ± .30 mm	
CC1COc2c(N3CCN(C)CC3)c(F)cc3c(=O)c(C(=O)O)cn1c23 (centres unmarked) [Ofloxacin, ofloxacin]				1.16 ± .12 mm	Left (mg): hair mass for vehicle with test compound (flank organ hair growth; dose 5%): 1.56 ± .24 mg; % Inhibition (hair mass reduction) (flank organ hair growth; dose 5%): 39 ± 7%; Length Increase (mm) (human hair follicles; 0.01 μM): 1.51 ± .24 mm; Length Increase (mm) (human hair follicles; 0.1 μM): 1.16 ± .12 mm; Length Increase (mm) (human hair follicles; 1.0 μM, separate control 1.40 ± .17 mm): 0.43 ± .11 mm; inhibition at 0.01 µM (human hair follicles; Homo sapiens, 0.01 μM): 10 ± 14%; inhibition at 0.1 µM (human hair follicles; Homo sapiens, 0.1 μM): 30 ± 7%; inhibition at 1 µM (human hair follicles; Homo sapiens, 1.0 μM, separate control 1.40 ± .17 mm): 69 ± 8%; inhibition at 100 µM (human hair follicles; Homo sapiens, 100 μM): 31 ± 7%
